These results are taken from paper PMC7724566, “Prospects for Clinical Development of Stat5 Inhibitor IST5-002: High Transcriptomic Specificity in Prostate Cancer and Low Toxicity In Vivo” (Cancers, 2020).

One assay concerns the target T1, ABL2 (Homo sapiens, UniProt P42684).
T1 construct: purchased Reaction Biology (JAK1/2/3, TYK2); Luceome Biotechnologies KinaseSeeker (others)
The assay is described as follows: Kinase Seeker luminescence cell-free assay. The class given is binding. To be noted: percent activity of kinase after exposure to IST5 1 µM. As for the experimental part: (§1) For Jak1, Jak2, Jak3 and Tyk2, a radiometric filtration binding assay was conducted by Reaction Biologicals (Malvern, PA, USA) (Table 1). This radiometric assay is a cell-free assay which is based on conventional filter-binding assays, directly measuring kinase catalytic activity toward a specific substrate. For evaluation of the activity of the other kinases, the Kinase Seeker Technology was utilized (Luceome Biotechnologies, Tucson, AZ, USA), which is a luminescence-based cell-free assay. In this assay, the reassembly of luciferase fragments is mediated by the interaction of a kinase with an active site-dependent probe. The competitive displacement of the probe by an inhibitor is measured by a change in luminescence signal. Percent activity of each kinase after exposure to IST5 (1 µM) is presented.

The next assay addresses T2, CAMKK2 (Homo sapiens, UniProt Q96RR4).
T2 construct: purchased Reaction Biology (JAK1/2/3, TYK2); Luceome Biotechnologies KinaseSeeker (others)
The assay is described as follows: Kinase Seeker luminescence cell-free assay. The class given is binding. The note with it: percent activity of kinase after exposure to IST5 1 µM. The protocol: as §1

For another assay, the target named is T3, FAK (Homo sapiens, UniProt Q05397).
T3 construct: purchased Reaction Biology (JAK1/2/3, TYK2); Luceome Biotechnologies KinaseSeeker (others)
Kind of assay: Kinase Seeker luminescence cell-free assay. The class given is binding. To be noted: percent activity of kinase after exposure to IST5 1 µM. The protocol: as §1

The target of a further assay is T4, FLT1 (Homo sapiens, UniProt P17948).
T4 construct: purchased Reaction Biology (JAK1/2/3, TYK2); Luceome Biotechnologies KinaseSeeker (others)
T4 sequence (P17948 27-1338): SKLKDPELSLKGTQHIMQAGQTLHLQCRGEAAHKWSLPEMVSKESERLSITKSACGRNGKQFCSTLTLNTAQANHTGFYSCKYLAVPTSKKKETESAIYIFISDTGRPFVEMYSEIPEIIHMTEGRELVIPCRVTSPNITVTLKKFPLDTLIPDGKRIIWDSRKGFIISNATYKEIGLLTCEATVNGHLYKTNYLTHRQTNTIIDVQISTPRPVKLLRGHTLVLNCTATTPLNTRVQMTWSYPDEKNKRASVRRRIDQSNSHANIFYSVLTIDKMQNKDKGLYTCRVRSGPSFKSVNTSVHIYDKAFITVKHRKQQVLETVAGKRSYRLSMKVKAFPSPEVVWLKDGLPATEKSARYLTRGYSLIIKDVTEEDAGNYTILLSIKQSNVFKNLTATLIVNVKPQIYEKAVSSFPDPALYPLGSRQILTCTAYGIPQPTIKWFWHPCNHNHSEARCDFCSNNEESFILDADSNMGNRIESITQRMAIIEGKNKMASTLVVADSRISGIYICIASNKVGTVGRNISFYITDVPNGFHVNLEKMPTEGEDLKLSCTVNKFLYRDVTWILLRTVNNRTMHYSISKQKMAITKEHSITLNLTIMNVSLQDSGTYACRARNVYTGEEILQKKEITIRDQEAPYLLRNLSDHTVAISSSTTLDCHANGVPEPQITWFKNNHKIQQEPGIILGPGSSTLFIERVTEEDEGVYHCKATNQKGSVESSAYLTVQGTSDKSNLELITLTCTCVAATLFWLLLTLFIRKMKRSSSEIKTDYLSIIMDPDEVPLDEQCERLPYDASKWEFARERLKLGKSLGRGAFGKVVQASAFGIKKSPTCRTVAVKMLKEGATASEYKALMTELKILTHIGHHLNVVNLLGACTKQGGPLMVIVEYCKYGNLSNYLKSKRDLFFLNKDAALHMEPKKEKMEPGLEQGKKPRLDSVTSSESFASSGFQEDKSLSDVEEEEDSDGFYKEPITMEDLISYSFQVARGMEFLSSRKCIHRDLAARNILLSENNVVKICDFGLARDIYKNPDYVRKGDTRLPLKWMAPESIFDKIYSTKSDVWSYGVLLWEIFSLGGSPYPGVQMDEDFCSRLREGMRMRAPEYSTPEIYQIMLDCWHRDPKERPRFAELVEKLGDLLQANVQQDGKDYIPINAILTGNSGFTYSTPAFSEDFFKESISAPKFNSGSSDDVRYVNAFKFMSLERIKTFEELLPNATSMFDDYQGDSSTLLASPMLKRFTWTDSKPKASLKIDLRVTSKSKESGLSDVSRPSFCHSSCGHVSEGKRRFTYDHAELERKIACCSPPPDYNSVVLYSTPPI
The assay is described as follows: Kinase Seeker luminescence cell-free assay. The note with it: percent activity of kinase after exposure to IST5 1 µM. The class given is binding. As for the experimental part:
as §1

In the next assay the target is T5, FYN (Homo sapiens, UniProt P06241).
T5 construct: purchased Reaction Biology (JAK1/2/3, TYK2); Luceome Biotechnologies KinaseSeeker (others)
T5 sequence (P06241 whole entry): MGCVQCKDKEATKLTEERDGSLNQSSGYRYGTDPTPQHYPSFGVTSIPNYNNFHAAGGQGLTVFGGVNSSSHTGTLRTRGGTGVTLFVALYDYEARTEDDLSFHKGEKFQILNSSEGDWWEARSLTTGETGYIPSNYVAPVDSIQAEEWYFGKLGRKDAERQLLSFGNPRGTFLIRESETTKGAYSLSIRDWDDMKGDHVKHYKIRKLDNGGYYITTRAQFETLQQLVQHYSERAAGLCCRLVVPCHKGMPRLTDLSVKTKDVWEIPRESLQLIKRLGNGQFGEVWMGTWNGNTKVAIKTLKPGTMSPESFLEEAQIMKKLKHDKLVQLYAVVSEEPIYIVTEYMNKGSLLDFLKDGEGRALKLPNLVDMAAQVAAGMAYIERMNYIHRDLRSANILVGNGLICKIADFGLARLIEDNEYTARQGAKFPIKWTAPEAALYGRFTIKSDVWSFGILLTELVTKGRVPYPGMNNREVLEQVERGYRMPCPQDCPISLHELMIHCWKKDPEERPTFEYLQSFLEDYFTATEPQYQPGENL
The assay is described as follows: Kinase Seeker luminescence cell-free assay. The format is binding. The note with it: percent activity of kinase after exposure to IST5 1 µM. The protocol:
as §1

Another assay has as its target T6, MET (Homo sapiens, UniProt P08581).
T6 construct: purchased Reaction Biology (JAK1/2/3, TYK2); Luceome Biotechnologies KinaseSeeker (others)
Kind of assay: Kinase Seeker luminescence cell-free assay. The class given is binding. The note with it: percent activity of kinase after exposure to IST5 1 µM. As for the experimental part:
as §1

The next assay addresses T7, MLK3 (Homo sapiens, UniProt Q16584).
T7 construct: purchased Reaction Biology (JAK1/2/3, TYK2); Luceome Biotechnologies KinaseSeeker (others)
The assay is described as follows: Kinase Seeker luminescence cell-free assay. The class given is binding. The note with it: percent activity of kinase after exposure to IST5 1 µM. The protocol: as §1

Another assay has as its target T8, SYK (Homo sapiens, UniProt P43405).
T8 construct: purchased Reaction Biology (JAK1/2/3, TYK2); Luceome Biotechnologies KinaseSeeker (others)
The assay is described as follows: Kinase Seeker luminescence cell-free assay. The note with it: percent activity of kinase after exposure to IST5 1 µM. The format is binding. The protocol: as §1

For the next assay, the target named is T9, VEGFR2 (Homo sapiens, UniProt P35968).
T9 construct: purchased Reaction Biology (JAK1/2/3, TYK2); Luceome Biotechnologies KinaseSeeker (others)
Kind of assay: Kinase Seeker luminescence cell-free assay. The format is binding. The note with it: percent activity of kinase after exposure to IST5 1 µM. The protocol:
as §1

Another assay deals with PC xenograft tumors. On the set-up: method as in PMID 18316550, PMID 23942095, PMID 26362718, PMID 20966544, PMID 20233708. The note with it: cited from earlier work.
In assay [1] the test system is patient-derived clinical PCs. On the set-up: method as in PMID 26026053, PMID 31548294. The note with it: 3D tumor explant cultures; cited from earlier work.
Assay [2] deals with enzalutamide-resistant PC. More on the design: method as in PMID 31548294. The note with it: cited from earlier work.
Assay [3] relates to chronic myeloid leukemia (CML) cells. More on the design: method as in PMID 26026053. The note with it: cited from earlier work.
A further assay deals with JAK1 (Homo sapiens, UniProt P23458). Kind of assay: Radiometric filtration binding cell-free kinase assay. The class given is biochemical. More on the design: purchased Reaction Biology (JAK1/2/3, TYK2); Luceome Biotechnologies KinaseSeeker (others). To be noted: percent activity of kinase after exposure to IST5 1 µM. The protocol:
as §1

The target of another assay is JAK2 (Homo sapiens, UniProt O60674). The assay is described as above. The class given is biochemical. On the set-up: purchased Reaction Biology (JAK1/2/3, TYK2); Luceome Biotechnologies KinaseSeeker (others). To be noted: percent activity of kinase after exposure to IST5 1 µM. The protocol:
as §1

The target in the next assay is T10, JAK3 (Homo sapiens, UniProt P52333).
T10 sequence (P52333 1-1124): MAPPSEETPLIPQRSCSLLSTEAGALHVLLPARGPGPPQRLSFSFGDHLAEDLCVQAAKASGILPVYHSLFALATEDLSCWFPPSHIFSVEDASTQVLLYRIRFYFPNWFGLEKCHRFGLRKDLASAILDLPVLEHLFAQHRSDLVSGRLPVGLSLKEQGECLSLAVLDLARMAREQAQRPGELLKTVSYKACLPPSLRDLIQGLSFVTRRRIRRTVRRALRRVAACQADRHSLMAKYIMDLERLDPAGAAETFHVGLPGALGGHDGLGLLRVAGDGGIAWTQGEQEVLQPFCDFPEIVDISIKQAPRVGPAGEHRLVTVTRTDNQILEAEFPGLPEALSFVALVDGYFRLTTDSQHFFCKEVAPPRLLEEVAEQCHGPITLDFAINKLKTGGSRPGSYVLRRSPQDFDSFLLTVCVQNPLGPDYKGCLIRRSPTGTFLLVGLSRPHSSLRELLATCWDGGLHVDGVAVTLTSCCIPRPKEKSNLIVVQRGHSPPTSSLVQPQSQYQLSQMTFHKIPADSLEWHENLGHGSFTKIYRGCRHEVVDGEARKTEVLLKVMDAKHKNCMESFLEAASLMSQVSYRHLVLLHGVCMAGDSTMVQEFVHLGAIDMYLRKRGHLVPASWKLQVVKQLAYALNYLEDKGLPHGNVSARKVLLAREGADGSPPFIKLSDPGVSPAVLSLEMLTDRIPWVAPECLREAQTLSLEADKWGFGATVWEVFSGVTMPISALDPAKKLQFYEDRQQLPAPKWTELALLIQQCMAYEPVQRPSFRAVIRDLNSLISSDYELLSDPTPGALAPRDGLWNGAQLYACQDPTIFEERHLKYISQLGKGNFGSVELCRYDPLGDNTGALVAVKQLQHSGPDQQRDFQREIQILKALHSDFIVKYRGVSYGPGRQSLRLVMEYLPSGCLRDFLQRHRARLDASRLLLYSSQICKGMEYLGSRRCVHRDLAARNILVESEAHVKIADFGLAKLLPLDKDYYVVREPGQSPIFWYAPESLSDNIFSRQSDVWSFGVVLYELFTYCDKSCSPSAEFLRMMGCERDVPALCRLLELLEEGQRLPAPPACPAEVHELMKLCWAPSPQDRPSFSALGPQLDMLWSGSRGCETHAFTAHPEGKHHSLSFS
The description is as above. The note with it: percent activity of kinase after exposure to IST5 1 µM. The class given is biochemical. On the set-up: purchased Reaction Biology (JAK1/2/3, TYK2); Luceome Biotechnologies KinaseSeeker (others). The protocol:
as §1

The next assay concerns the target TYK2 (Homo sapiens, UniProt P29597). The assay is described as above. The format is biochemical. More on the design: purchased Reaction Biology (JAK1/2/3, TYK2); Luceome Biotechnologies KinaseSeeker (others). To be noted: percent activity of kinase after exposure to IST5 1 µM. As for the experimental part:
as §1

The structures appear in SMILES notation.

TYK2, sequence (P29597 whole entry): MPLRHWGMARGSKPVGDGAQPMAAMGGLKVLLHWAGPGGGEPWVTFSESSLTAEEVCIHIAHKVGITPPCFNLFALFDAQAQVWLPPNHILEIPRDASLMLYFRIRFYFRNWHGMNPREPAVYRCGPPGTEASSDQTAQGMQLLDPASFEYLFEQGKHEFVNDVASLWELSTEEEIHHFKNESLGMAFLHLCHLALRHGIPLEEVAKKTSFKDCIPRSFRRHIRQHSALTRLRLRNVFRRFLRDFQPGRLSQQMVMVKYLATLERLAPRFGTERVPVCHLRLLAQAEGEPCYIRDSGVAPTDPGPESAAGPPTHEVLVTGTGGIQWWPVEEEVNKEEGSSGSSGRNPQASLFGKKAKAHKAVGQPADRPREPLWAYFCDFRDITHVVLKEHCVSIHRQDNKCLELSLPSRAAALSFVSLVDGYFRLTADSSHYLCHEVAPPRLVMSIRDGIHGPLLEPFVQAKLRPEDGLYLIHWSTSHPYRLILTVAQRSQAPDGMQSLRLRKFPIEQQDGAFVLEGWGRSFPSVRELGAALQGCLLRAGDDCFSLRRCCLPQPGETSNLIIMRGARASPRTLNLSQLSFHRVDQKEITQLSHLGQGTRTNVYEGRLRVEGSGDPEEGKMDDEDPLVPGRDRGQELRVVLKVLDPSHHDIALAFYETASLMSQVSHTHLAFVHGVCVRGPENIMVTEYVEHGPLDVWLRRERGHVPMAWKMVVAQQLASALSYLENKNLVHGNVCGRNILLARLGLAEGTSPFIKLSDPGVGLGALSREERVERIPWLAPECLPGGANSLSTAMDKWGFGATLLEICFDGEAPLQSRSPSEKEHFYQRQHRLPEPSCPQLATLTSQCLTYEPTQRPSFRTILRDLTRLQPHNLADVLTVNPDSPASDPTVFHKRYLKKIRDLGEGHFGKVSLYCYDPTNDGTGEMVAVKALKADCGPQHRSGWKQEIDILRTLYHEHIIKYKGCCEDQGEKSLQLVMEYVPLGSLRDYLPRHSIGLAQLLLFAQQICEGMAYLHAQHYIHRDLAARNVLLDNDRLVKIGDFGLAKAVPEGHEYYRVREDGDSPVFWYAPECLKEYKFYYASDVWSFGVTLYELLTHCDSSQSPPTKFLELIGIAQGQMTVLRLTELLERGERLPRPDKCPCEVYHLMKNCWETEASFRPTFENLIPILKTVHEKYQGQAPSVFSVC
T1 sequence (P42684 whole entry): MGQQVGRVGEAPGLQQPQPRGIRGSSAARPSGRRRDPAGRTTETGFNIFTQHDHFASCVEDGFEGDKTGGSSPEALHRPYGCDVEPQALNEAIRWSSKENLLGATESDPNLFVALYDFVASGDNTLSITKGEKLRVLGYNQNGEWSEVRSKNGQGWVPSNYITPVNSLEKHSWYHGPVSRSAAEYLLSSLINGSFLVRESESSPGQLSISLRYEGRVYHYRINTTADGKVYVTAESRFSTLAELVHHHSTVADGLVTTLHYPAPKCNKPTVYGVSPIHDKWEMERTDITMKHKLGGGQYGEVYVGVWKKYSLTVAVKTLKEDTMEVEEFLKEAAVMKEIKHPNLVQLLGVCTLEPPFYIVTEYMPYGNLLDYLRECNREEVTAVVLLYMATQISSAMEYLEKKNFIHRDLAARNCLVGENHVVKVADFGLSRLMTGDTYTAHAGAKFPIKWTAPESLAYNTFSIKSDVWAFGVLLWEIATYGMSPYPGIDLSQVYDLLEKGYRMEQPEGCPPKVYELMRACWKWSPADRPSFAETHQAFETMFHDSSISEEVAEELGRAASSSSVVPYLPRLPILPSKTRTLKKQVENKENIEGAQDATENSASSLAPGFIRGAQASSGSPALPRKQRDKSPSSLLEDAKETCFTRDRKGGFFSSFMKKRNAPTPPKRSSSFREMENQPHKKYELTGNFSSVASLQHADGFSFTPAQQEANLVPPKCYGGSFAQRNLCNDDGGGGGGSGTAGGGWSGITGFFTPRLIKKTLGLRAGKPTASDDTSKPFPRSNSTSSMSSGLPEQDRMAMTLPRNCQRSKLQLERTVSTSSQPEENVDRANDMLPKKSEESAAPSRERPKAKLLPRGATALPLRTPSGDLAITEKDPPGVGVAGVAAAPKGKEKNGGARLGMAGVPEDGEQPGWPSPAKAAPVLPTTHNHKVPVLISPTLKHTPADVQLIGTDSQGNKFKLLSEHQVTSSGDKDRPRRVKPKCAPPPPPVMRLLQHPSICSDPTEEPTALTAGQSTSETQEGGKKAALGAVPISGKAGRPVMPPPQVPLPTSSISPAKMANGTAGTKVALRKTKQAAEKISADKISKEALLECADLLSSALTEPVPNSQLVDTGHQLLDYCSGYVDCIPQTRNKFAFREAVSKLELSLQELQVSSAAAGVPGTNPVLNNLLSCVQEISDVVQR
T2 sequence (Q96RR4 whole entry): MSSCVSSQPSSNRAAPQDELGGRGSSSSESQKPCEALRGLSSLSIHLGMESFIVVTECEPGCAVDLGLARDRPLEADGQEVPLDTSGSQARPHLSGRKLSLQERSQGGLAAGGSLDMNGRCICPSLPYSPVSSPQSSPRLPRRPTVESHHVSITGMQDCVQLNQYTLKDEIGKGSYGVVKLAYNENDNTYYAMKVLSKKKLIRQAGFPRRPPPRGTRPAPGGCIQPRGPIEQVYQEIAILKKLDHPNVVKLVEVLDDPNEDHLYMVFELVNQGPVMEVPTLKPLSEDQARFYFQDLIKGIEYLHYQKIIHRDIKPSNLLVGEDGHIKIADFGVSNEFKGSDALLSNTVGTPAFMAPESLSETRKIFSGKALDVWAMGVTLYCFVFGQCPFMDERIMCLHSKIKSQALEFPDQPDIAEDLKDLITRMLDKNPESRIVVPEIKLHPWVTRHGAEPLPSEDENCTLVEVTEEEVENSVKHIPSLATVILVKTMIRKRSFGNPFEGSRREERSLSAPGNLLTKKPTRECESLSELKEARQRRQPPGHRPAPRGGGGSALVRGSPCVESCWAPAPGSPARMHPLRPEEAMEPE

In the case of `O=P(O)(O)OCC1OC(n2cnc3c(NCc4ccccc4)ncnc32)C(O)C1O` (centres unmarked) [IST5], the Activity is recorded as 88.6% on ABL2; 100.0% on CAMKK2; 99.0% on FAK; 88.4% at FLT1; 95.8% at FYN; 100.0% at MET. Moreover, the Activity was 93.5% on MLK3; 92.1% at SYK; 89.1% at VEGFR2; 96.2% at JAK1; 95.4% at JAK2; 100.0% at JAK3. The Activity at TYK2 worked out at 100.0%. For the same compound, the “growth of PC xenograft tumors in mice in vivo” value in the assay on PC xenograft tumors is given as “block growth”. Also, in assay [1], the “apoptotic death in patient-derived clinical PCs ex vivo” value is on record as “induce apoptotic death”. For the same compound, in [2], the “enzalutamide-resistant PC growth in mice” value was “blocks enzalutamide-resistant PC growth”. Besides, the “efficacy in CML cells” value in [3] was “remarkable efficacy”.
